According to the supplement of paper PMC10307832:

Experiments:
Experiment in all cases: relative viability (nuclei count vs DMSO), 5 days (fraction); higher = more cells survive
Bortezomib + Palbociclib = compound: CC(C)C[C@H](NC(=O)[C@H](Cc1ccccc1)NC(=O)c1cnccn1)B(O)O [Bortezomib] + CC(=O)c1c(C)c2cnc(Nc3ccc(N4CCNCC4)cn3)nc2n(C2CCCC2)c1=O [Palbociclib] (partner 0.5 µM)
Method in brief: (§1)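 For relative viability, nuclei counts in treated wells were divided by those in vehicle wells. Lung cancer cell lines had been pin-tool dosed in 1536-well plates the day after seeding and cultured for 5 days, then fixed and stained in one step (final 0.05% Triton X-100, 1% formaldehyde, 1 ug/ml Hoechst) and imaged at 4×. Doses were one drug alone or a fixed anchor-drug dose plus five library-drug doses (not always all listed) in √10 steps, and values are duplicate-plate medians.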

Bortezomib + Pictilisib = compound: CC(C)C[C@H](NC(=O)[C@H](Cc1ccccc1)NC(=O)c1cnccn1)B(O)O [Bortezomib] + CS(=O)(=O)N1CCN(Cc2cc3nc(-c4cccc5[nH]ncc45)nc(N4CCOCC4)c3s2)CC1 [Pictilisib] (partner 1 µM)
Method in brief: as §1

Obatoclax + Dasatinib = compound: COC1=CC(c2cc3ccccc3[nH]2)=N/C1=C\c1[nH]c(C)cc1C [Obatoclax] + Cc1nc(Nc2ncc(C(=O)Nc3c(C)cccc3Cl)s2)cc(N2CCN(CCO)CC2)n1 [Dasatinib] (partner 0.075 µM)
Method in brief: as §1

Obatoclax + Alpelisib = compound: COC1=CC(c2cc3ccccc3[nH]2)=N/C1=C\c1[nH]c(C)cc1C [Obatoclax] + Cc1nc(NC(=O)N2CCC[C@H]2C(N)=O)sc1-c1ccnc(C(C)(C)C(F)(F)F)c1 [Alpelisib] (partner 2 µM)
Method in brief: as §1

Cell Line	relative viability (Bortezomib + Palbociclib; first compound 0.0002 µM)	relative viability (Bortezomib + Palbociclib; first compound 0.000632 µM)	relative viability (Bortezomib + Palbociclib; first compound 0.002 µM)	relative viability (Bortezomib + Palbociclib; first compound 0.006325 µM)	relative viability (Bortezomib + Palbociclib; first compound 0.02 µM)	relative viability (Bortezomib + Pictilisib; first compound 0.0002 µM)	relative viability (Bortezomib + Pictilisib; first compound 0.002 µM)	relative viability (Bortezomib + Pictilisib; first compound 0.006325 µM)	relative viability (Bortezomib + Pictilisib; first compound 0.02 µM)	relative viability (Obatoclax + Dasatinib; first compound 0.01 µM)	relative viability (Obatoclax + Dasatinib; first compound 0.03162 µM)	relative viability (Obatoclax + Dasatinib; first compound 0.1 µM)	relative viability (Obatoclax + Dasatinib; first compound 0.3162 µM)	relative viability (Obatoclax + Dasatinib; first compound 1 µM)	relative viability (Obatoclax + Alpelisib; first compound 0.01 µM)	relative viability (Obatoclax + Alpelisib; first compound 0.03162 µM)	relative viability (Obatoclax + Alpelisib; first compound 0.1 µM)	relative viability (Obatoclax + Alpelisib; first compound 0.3162 µM)	relative viability (Obatoclax + Alpelisib; first compound 1 µM)	relative viability (Bortezomib + Pictilisib; first compound 0.000632 µM)
LU99A	0.464	0.364	0.405	0.261	0.164	0.385	0.35	0.328	0.169	0.471	0.568	0.575	0.434	0.261	0.626	0.641	0.567	0.3	0.2	–
H3255	0.322	0.335	0.285	0.256	0.243	0.58	0.406	0.192	0.142	0.301	0.323	0.422	0.348	0.302	0.611	0.725	0.732	0.631	0.55	0.482
NCI-H1734	0.38	0.342	0.266	0.108	0.0922	0.483	0.36	0.224	0.128	0.493	0.287	0.427	0.375	0.2	0.682	0.619	–	0.57	0.511	0.301
NCI-H1915	0.476	0.519	0.54	0.118	0.0404	0.808	1.14	0.685	0.144	0.314	0.271	0.318	0.329	0.282	1.05	0.965	0.993	1.08	1.05	0.941
NCI-H2009	0.241	0.205	0.176	0.0661	0.0466	0.602	0.797	0.0767	0.06	0.297	0.367	0.252	0.208	0.197	1.08	1.16	1.19	1.13	0.286	0.675
NCI-H1651	0.505	0.504	0.401	0.113	0.103	0.406	0.591	0.0909	0.0929	0.563	0.376	0.372	0.293	0.187	0.884	0.765	1.04	0.611	0.236	0.532
HOP-62	0.437	0.492	0.307	0.0611	0.0516	0.752	0.748	0.333	0.0568	0.718	0.64	0.439	0.787	0.534	0.903	0.771	0.951	1.02	1.21	0.667
CAL-12T	0.561	0.447	0.384	0.182	0.104	0.155	0.427	0.211	0.151	0.419	0.414	0.426	0.0751	0.0688	1.14	1.29	1.01	0.695	0.129	0.368
LCLC-103H	0.475	0.462	0.419	0.324	0.254	0.529	0.549	0.511	0.383	0.458	0.464	0.411	0.517	0.53	0.938	0.907	0.97	0.961	1.02	0.509
NCI-H3122	0.197	0.204	0.205	0.135	0.102	0.547	0.688	0.62	0.167	0.925	0.843	0.798	0.674	0.766	0.787	0.812	0.792	0.707	0.751	0.654
NCI-H1395	0.591	0.614	0.38	0.31	0.253	0.566	0.531	0.445	0.294	0.417	0.416	0.399	0.412	0.432	1.14	1.2	0.982	0.954	0.474	0.58
PC-14	0.53	0.506	0.412	0.045	0.052	0.685	0.632	0.0319	0.0362	0.285	0.286	0.225	0.0723	0.0415	0.875	0.92	0.892	0.775	0.632	0.726
BEN	0.443	0.461	0.489	0.445	0.236	0.542	0.531	0.366	0.24	0.321	0.312	–	0.41	0.272	0.963	1	0.904	1.16	0.911	0.557
EPLC-272H	0.307	0.29	0.304	0.111	0.0584	–	0.3	0.242	0.15	0.36	0.31	0.342	0.264	0.147	1.08	0.962	0.808	0.906	0.941	–
LK-2	0.649	0.685	0.415	0.125	0.133	–	0.295	0.251	0.245	0.329	0.263	0.394	0.375	0.229	1.07	1.13	1.43	1.07	1.03	0.559
UMC-11	0.3	0.334	0.294	0.295	0.214	0.703	0.741	0.393	0.138	0.443	0.529	0.468	0.372	0.278	0.954	0.892	1.03	0.584	0.442	0.751
HCC-827	0.496	0.626	0.467	0.197	0.137	0.772	0.984	0.82	0.235	0.451	0.292	0.417	0.407	0.388	0.949	0.931	0.957	0.984	0.964	0.956
NCI-H1993	0.569	0.737	0.666	0.369	0.359	0.915	0.804	0.528	0.625	0.616	0.549	0.748	0.499	0.395	0.704	0.648	0.682	0.667	0.6	0.654
NCI-H647	0.385	0.251	0.426	0.0189	0.0229	0.331	0.364	0.0521	0.0347	0.258	0.164	0.149	0.0862	0.0719	1.09	1.3	0.875	0.265	0.148	0.287
NCI-H460	0.181	0.283	0.155	0.0455	0.0161	0.334	0.435	0.36	0.346	0.497	0.385	0.384	0.343	0.21	0.509	0.481	0.309	0.0452	0.0244	0.376
EMC-BAC-2	0.524	0.484	0.466	0.285	0.205	0.523	0.544	0.476	0.158	0.357	0.325	0.255	0.264	0.284	0.658	0.797	0.744	0.738	0.696	0.504
NCI-H23	0.456	–	0.398	0.158	0.13	–	0.381	0.144	0.131	0.826	0.838	0.825	0.757	0.306	0.667	0.607	0.691	0.604	0.569	0.407
A-427	0.508	0.469	0.53	0.272	0.169	0.673	0.771	0.703	0.175	0.719	0.687	0.462	0.6	0.271	1.14	1.09	1.13	1.04	1.01	0.626
ABC-1	0.619	0.709	0.269	0.229	0.328	0.285	0.292	0.24	0.258	0.498	0.55	0.369	0.551	0.375	1.04	1.18	1.09	1.19	0.573	0.372
NCI-H322M	0.486	0.448	0.463	0.441	0.404	0.49	0.523	0.459	0.554	0.257	0.259	–	0.259	0.28	0.705	0.819	0.793	0.889	0.781	–
COR-L23	0.308	0.274	0.183	0.0534	0.0546	0.922	0.609	0.0347	0.0399	0.494	0.488	0.416	0.285	0.163	0.765	0.808	0.675	0.209	0.182	0.777
SK-MES-1	0.317	0.321	0.296	0.159	0.179	0.337	0.347	0.148	0.143	0.356	0.48	0.394	0.362	0.267	0.828	0.785	1.01	0.824	0.645	0.303
